Experimental data taken from patent US20230133958A1, “COMPOUNDS USEFUL IN MODULATING EGFR AND PI3K” (Mekanistic Therapeutics LLC, priority 2021, published 2023).

How the values were obtained:
Format in all cases: cell-based
MDA-MB-231/ATCC = assay: NCI COMPARE panel (SRB growth inhibition), MDA-MB-231/ATCC; conditions: Homo sapiens, Breast Cancer, 48 h
Procedure: (§1) The human tumor cell lines of the cancer screening panel are grown in RPMI 1640 medium containing 5% fetal bovine serum and 2 mM L-glutamine. For a typical screening experiment, cells are inoculated into 96 well microtiter plates in 100 µL at plating densities ranging from 5,000 to 40,000 cells/well depending on the doubling time of individual cell lines. After cell inoculation, the microtiter plates are incubated at 37° C., 5% CO2, 95% air and 100% relative humidity for 24 h prior to addition of experimental drugs.
(§2) After 24 h, two plates of each cell line are fixed in situ with TCA, to represent a measurement of the cell population for each cell line at the time of drug addition (Tz). Experimental drugs are solubilized in dimethyl sulfoxide at 400-fold the desired final maximum test concentration and stored frozen prior to use. […]
(§3) Following drug addition, the plates are incubated for an additional 48 h at 37° C., 5 % CO2, 95% air, and 100% relative humidity. […] Bound stain is subsequently solubilized with 10 mM trizma base, and the absorbance is read on an automated plate reader at a wavelength of 515 nm. […] Using the seven absorbance measurements [time zero, (Tz), control growth, (C), and test growth in the presence of drug at the five concentration levels (Ti)], the percentage growth is calculated at each of the drug concentrations levels. Percentage growth inhibition is calculated as: […]

HS 578T = assay: NCI COMPARE panel (SRB growth inhibition), HS 578T; conditions: Homo sapiens, Breast Cancer, 48 h
Procedure: as §1, §2, §3

MDA-MB-468 = assay: NCI COMPARE panel (SRB growth inhibition), MDA-MB-468; conditions: Homo sapiens; Breast Cancer, MDA-MB-468, 48 h
Procedure: as §1, §2, §3

SF-268 = assay: NCI COMPARE panel (SRB growth inhibition), SF-268; conditions: Homo sapiens; CNS Cancer, SF-268, 48 h
Procedure: as §1, §2, §3

SF-295 = assay: NCI COMPARE panel (SRB growth inhibition), SF-295; conditions: Homo sapiens; CNS Cancer, SF-295, 48 h
Procedure: as §1, §2, §3

HCC-2998 = assay: NCI COMPARE panel (SRB growth inhibition), HCC-2998; conditions: Homo sapiens; Colon Cancer, HCC-2998, 48 h
Procedure: as §1, §2, §3

HCT-116 = assay: NCI COMPARE panel (SRB growth inhibition), HCT-116; conditions: Homo sapiens; Colon Cancer, HCT-116, 48 h
Procedure: as §1, §2, §3

HCT-15 = assay: NCI COMPARE panel (SRB growth inhibition), HCT-15; conditions: Homo sapiens; Colon Cancer, HCT-15, 48 h
Procedure: as §1, §2, §3

KM12 = assay: NCI COMPARE panel (SRB growth inhibition), KM12; conditions: Homo sapiens; Colon Cancer, KM12, 48 h
Procedure: as §1, §2, §3

SW-620 = assay: NCI COMPARE panel (SRB growth inhibition), SW-620; conditions: Homo sapiens; Colon Cancer, SW-620, 48 h
Procedure: as §1, §2, §3

K-562 = assay: NCI COMPARE panel (SRB growth inhibition), K-562; conditions: Homo sapiens, K562; Leukemia, K-562, 48 h
Procedure: as §1, §2, §3

LOX IMVI = assay: NCI COMPARE panel (SRB growth inhibition), LOX IMVI; conditions: Homo sapiens, Melanoma, 48 h
Procedure: as §1, §2, §3

MDA-MB-435 = assay: NCI COMPARE panel (SRB growth inhibition), MDA-MB-435; conditions: Homo sapiens; Melanoma, MDA-MB-435, 48 h
Procedure: as §1, §2, §3

SK-MEL-2 = assay: NCI COMPARE panel (SRB growth inhibition), SK-MEL-2; conditions: Homo sapiens; Melanoma, SK-MEL-2, 48 h
Procedure: as §1, §2, §3

SK-MEL-28 = assay: NCI COMPARE panel (SRB growth inhibition), SK-MEL-28; conditions: Homo sapiens; Melanoma, SK-MEL-28, 48 h
Procedure: as §1, §2, §3

NCI-H23 = assay: NCI COMPARE panel (SRB growth inhibition), NCI-H23; conditions: Homo sapiens; Non-Small Cell Lung Cancer, NCI-H23, 48 h
Procedure: as §1, §2, §3

NCI-H460 = assay: NCI COMPARE panel (SRB growth inhibition), NCI-H460; conditions: Homo sapiens; Non-Small Cell Lung Cancer, NCI-H460, 48 h
Procedure: as §1, §2, §3

OVCAR-4 = assay: NCI COMPARE panel (SRB growth inhibition), OVCAR-4; conditions: Homo sapiens; Ovarian Cancer, OVCAR-4, 48 h
Procedure: as §1, §2, §3

OVCAR-5 = assay: NCI COMPARE panel (SRB growth inhibition), OVCAR-5; conditions: Homo sapiens; Ovarian Cancer, OVCAR-5, 48 h
Procedure: as §1, §2, §3

NCI/ADR-RES = assay: NCI COMPARE panel (SRB growth inhibition), NCI/ADR-RES; conditions: Homo sapiens, Ovarian Cancer, 48 h
Procedure: as §1, §2, §3

PC-3 = assay: NCI COMPARE panel (SRB growth inhibition), PC-3; conditions: Homo sapiens; Prostate Cancer, PC-3, 48 h
Procedure: as §1, §2, §3

786-0 = assay: NCI COMPARE panel (SRB growth inhibition), 786-0; conditions: Homo sapiens; Renal Cancer, 786-0, 48 h
Procedure: as §1, §2, §3

ACHN = assay: NCI COMPARE panel (SRB growth inhibition), ACHN; conditions: Homo sapiens, Renal Cancer, 48 h
Procedure: as §1, §2, §3

SN12C = assay: NCI COMPARE panel (SRB growth inhibition), SN12C; conditions: Homo sapiens, Renal Cancer, 48 h
Procedure: as §1, §2, §3

UO-31 = assay: NCI COMPARE panel (SRB growth inhibition), UO-31; conditions: Homo sapiens; Renal Cancer, UO-31, 48 h
Procedure: as §1, §2, §3

| SMILES | GI50 (MDA-MB-231/ATCC) [nM] | GI50 (HS 578T) [nM] | GI50 (MDA-MB-468) [nM] | GI50 (SF-268) [nM] | GI50 (SF-295) [nM] | GI50 (HCC-2998) [nM] | GI50 (HCT-116) [nM] | GI50 (HCT-15) [nM] | GI50 (KM12) [nM] | GI50 (SW-620) [nM] | GI50 (K-562) [nM] | GI50 (LOX IMVI) [nM] | GI50 (MDA-MB-435) [nM] | GI50 (SK-MEL-2) [nM] | GI50 (SK-MEL-28) [nM] | GI50 (NCI-H23) [nM] | GI50 (NCI-H460) [nM] | GI50 (OVCAR-4) [nM] | GI50 (OVCAR-5) [nM] | GI50 (NCI/ADR-RES) [nM] | further results |
| --- | --- | --- | --- | --- | --- | --- | --- | --- | --- | --- | --- | --- | --- | --- | --- | --- | --- | --- | --- | --- | --- |
| CS(=O)(=O)Nc1cc(-c2ccc3ncc(C#N)c(Nc4cccc(Cl)c4F)c3c2)cnc1Cl [Compound 10, N-[2-chloro-5-[4-(3-chloro-2-fluoro-anilino)-3-cyano-6-quinolyl]-3-pyridyl]methanesulfonamide] | > 250 | ≤ 75 | ≤ 75 | 75 to 125 | 125 to 250 | > 250 | ≤ 75 | 75 to 125 | > 250 | ≤ 75 | 75 to 125 | 75 to 125 | 125 to 250 | ≤ 75 | 125 to 250 | 125 to 250 | > 250 | > 250 | > 250 | > 250 | GI50 (PC-3): 125 to 250 nM; GI50 (786-0): > 250 nM; GI50 (ACHN): > 250 nM; GI50 (SN12C): 75 to 125 nM; GI50 (UO-31): 125 to 250 nM |
| CS(=O)(=O)Nc1cc(-c2ccc3ncnc(Nc4cccc(Cl)c4F)c3c2)cnc1Cl [Compound 6, N-[2-chloro-5-[4-(3-chloro-2-fluoro-anilino)quinazolin-6-yl]-3-pyridyl] methanesulfonamide] | 125 to 250 | ≤ 75 | 125 to 250 | 125 to 250 | 125 to 250 | 125 to 250 | 125 to 250 | 125 to 250 | > 250 | > 250 | > 250 | 125 to 250 | 125 to 250 | 125 to 250 | 75 to 125 | 125 to 250 | > 250 | > 250 | 125 to 250 | > 250 | GI50 (PC-3): 125 to 250 nM; GI50 (786-0): 125 to 250 nM; GI50 (ACHN): 125 to 250 nM; GI50 (SN12C): 125 to 250 nM; GI50 (UO-31): ≤ 75 nM |
